{"source": "patent US9833433B1", "about": "“Compositions, methods of use, and methods of treatment” (priority 2013, dated 2017)", "key": {"NF-κB": {"system": "NF-κB", "assay": "NF-κB phosphorylation in NG108-15 cells"}, "COX-2 [1]": {"system": "COX-2", "assay": "Hippocampal COX-2 expression in mice (immunoblot)", "type": "in vivo"}, "[2]": {"system": "dendritic spines of CA1 pyramidal neurons", "assay": "Two-photon imaging of dendritic spines in CA1 pyramidal neurons", "type": "in vivo, mice", "conditions": "repeated Δ^9-THC exposure; Thy1-GFP mice", "procedure": "Morphology of dendritic spines in hippocampal CA1 pyramidal neurons was determined in GFP-expressing transgenic mice using a two-photon laser scanning microscope as described previously (Chen et al., 2012). Shape, size, and density of spines were measured from the three-dimensional reconstructions using NeuronStudio Version 0.9.92.\nMorphology of dendritic spines in hippocampal CA1 pyramidal neurons was determined in GFP-expressing transgenic mice treated with vehicle, Δ^9-THC or NS398+Δ^9-THC using a two-photon laser scanning microscope (Chameleon hands-free ultrafast Ti: sapphire laser with an Olympus scan head) with Olympus FLUOVIEW 300 software (Chen et al., 2012). Shape (thin, mushroom, or stubby), size, density, and volume of spines were measured from the three-dimensional reconstructions (Z stacks: 1μ step for the whole cell and 0.1μ step for a segment of dendrites) using AutoQuant X2 or 3D deconvolution plugin of Image J (http://bigwww.epfl.ch/algorithms/deconvolutionlab) and NeuronStudio (for 3D reconstruction of imaged dendritic spines, Version 0.9.92; http://research.mssm.edu/cnic/tools-ns.html, CNIC, Mount Sinai School of Medicine). […] The following parameters were used in analyzing and quantifying spines using NeuronStudio: Voxel size was set as 0.029*0.029*0.3 μm. […]"}, "synaptophysin (Syn)": {"system": "synaptophysin (Syn)", "assay": "Hippocampal synaptophysin expression (immunoblot)", "type": "in vivo, mice", "conditions": "Δ^9-THC for 7 days"}, "catalepsy": {"system": "catalepsy", "assay": "Bar test (catalepsy)", "type": "in vivo, mice", "conditions": "Δ^9-THC 10 mg/kg; 30, 60, and 90 min after injection", "procedure": "(§1) The classic Morris water maze and fear conditioning tests were performed to determine spatial and fear memory as described previously (Chen et al., 2012). The ‘open field’ test was conducted to detect the locomotor activity and the bar test was used to detect catalepsy (Egashira et al., 2007).\nThe cataleptic effect of Δ^9-THC was detected using the bar test as described previously with modification (Egashira et al., 2007; Pertwee and Wickens, 1991). Briefly, the front paws of each mouse were placed on an elevated rod (0.5 cm in diameter and 3.5 cm from the bottom of the test box) and the duration of time that the mouse kept motionless was determined. The test was conducted 30, 60, and 90 min after Δ^9-THC injection. Celebrex was injected 30 min prior to Δ^9-THC injection."}, "PSD-95": {"system": "PSD-95", "assay": "Hippocampal PSD-95 expression (immunoblot)", "type": "in vivo, mice", "conditions": "Δ^9-THC for 7 days", "procedure": "(§2) Western blot assay was conducted using specific antibodies (Table S1) to determine expressions of COX-2, glutamate receptor subunits, PSD-95, G-protein subunits, phosphoproteins, BACE1 and neprilysin in hippocampal tissue and/or in cultured cells as described previously (Chen et al., 2012). Surface biotinylation assays were performed to determine surface expression of glutamate receptor subunits in hippocampal slices as described previously (Fan et al., 2010)."}, "COX-2 [3]": {"system": "COX-2", "assay": "COX-2 expression in neuronal and astroglial cell-enriched cultures", "type": "cell-based", "conditions": "assayed 12 hr after treatment", "procedure": "Relative pure hippocampal neurons (astroglial cells<2%), mixed neurons and astroglial cells (astroglial cells ˜10%), and astroglial cell-enriched (astroglial cells>95%), and NG108-15 cell cultures were made as described previously (Sang et al, 2005; Zhang and Chen, 2008).\nPrimary hippocampal neurons (astroglial cells<2%), mixed neurons and astroglial cells (astroglial cells ˜10%), astroglial cell-enriched (astroglial cells>95%) and NG108-15 cells were cultured as described previously (Sang et al, 2005; Zhang and Chen, 2008). The extent of neurons and astroglial cells in culture were controlled by different treatments, which was estimated by using immunostaining with NeuN, a neuronal marker, glial fibrillary acidic protein (GFAP), an astrocytic marker, and OX-42, a microglial marker, in conjunction with DAPI staining."}, "locomotor activity": {"system": "locomotor activity", "assay": "Open field test (locomotor activity)", "type": "in vivo, mice", "conditions": "Δ^9-THC 10 mg/kg; 30 min open field", "procedure": "as §1\nThe ‘open field’ test was conducted using an automatic-recording open-field working station (MED Associates, Georgia, Vt.). During the test, mice were individually released into the center of the box immediately after injections of Δ^9-THC, NS398, Δ^9-THC+NS398, Celebrex or Celebrex+Δ^9-THC. Celebrex and NS398 were injected 30 min prior to Δ^9-THC injection and allowed to explore the field for 30 min and their behaviors were recorded by a photobeam-scanning system and a video camera simultaneously. Data were analyzed automatically by the computer-sampling system."}, "neprilysin (NEP)": {"system": "neprilysin (NEP)", "assay": "Neprilysin expression in 5XFAD APP transgenic mice (immunoblot)", "type": "in vivo", "conditions": "TG mice", "procedure": "as §2"}, "fear memory": {"system": "fear memory", "assay": "Fear conditioning test (contextual memory)", "type": "in vivo, mice", "conditions": "10 mg/kg once a day for 7 days; freezing 24 hrs after last injection", "procedure": "as §1\nHippocampus-dependent contextual memory was determined using a fear-conditioning working-station (Coulbourn Instruments, Allentown, Pa.) and a one-trial protocol as describe previously (Chen et al., 2006a; 2006b). Mice were individually put into the shock chamber and allowed to freely explore the environment for 150 seconds. Immediately after this, a tone at 90 dB and 2,800 Hz (CS) was delivered for 30 seconds, and at the last 2 seconds a foot shock at 0.8 mA was delivered to the mice for 2 seconds (US). After the pairing of CS/US, mice were allowed to stay in the chamber for another 30 seconds and then returned to their home cages. Then the animals started receiving vehicle, Δ^9-THC (10 mg/kg), NS398 (10 mg/kg), Δ^9-THC+NS398 once a day for 7 days. Fear memory test was conducted 24 hours after the cessation of the last injections. For contextual conditioning, mice were individually put back into the chamber where they received the shock and the freezing response was recorded for 5 minutes with a sampling method at an interval of 5 seconds. […]"}}, "data": [{"compound": "CCCCCc1cc(O)c2c(c1)OC(C)(C)[C@@H]1CCC(C)=C[C@@H]21", "note": "[Δ^9-THC, Δ^9-tetrahydrocannabinol]", "values": [{"measurement": "NF-κB phosphorylation", "setting": "NF-κB", "result": "induced NF-κB phosphorylation"}, {"measurement": "hippocampal COX-2 expression after cannabinoid injection", "setting": "COX-2 [1]; single i.p. injection, CP55,940 10 mg/kg, detected 4 hrs", "result": "dose- and time-dependent induction of COX-2 in the brain"}, {"measurement": "hippocampal COX-2 expression after repeated injections", "setting": "COX-2 [1]; Δ^9-THC 10 mg/kg i.p. once daily for 7 consecutive days, analyzed 24 hrs after last injection", "result": "steadily elevated"}, {"measurement": "density of dendritic spines", "setting": "[2]", "result": "significantly reduced density of dendritic spines of CA1 pyramidal neurons"}, {"measurement": "synaptophysin expression", "setting": "synaptophysin (Syn)", "result": "did not alter expression of synaptophysin (Syn)"}, {"measurement": "cataleptic effect", "setting": "catalepsy", "result": "cataleptic and locomotor depressive effects"}, {"measurement": "PSD-95 expression", "setting": "PSD-95", "result": "reduced expression of PSD-95"}, {"measurement": "COX-2 expression in neuronal and astroglial cell-enriched cultures", "setting": "COX-2 [3]", "result": "CB1R-dependent increase in COX-2 expression both in neuronal and astroglial cell-enriched cultures"}, {"measurement": "locomotor depressive effect", "setting": "locomotor activity", "result": "cataleptic and locomotor depressive effects"}, {"measurement": "expression of neprilysin (NEP)", "setting": "neprilysin (NEP)", "result": "increases expression of neprilysin (NEP)"}, {"measurement": "fear memory after repeated Δ^9-THC", "setting": "fear memory", "result": "impaired fear memory"}]}]}
